# Assays:
# Test in all cases: Test C greenhouse herbicide test, pre- and postemergence
# Type in all cases: in vivo
# [1] = test system: barnyardgrass (Echinochloa crus-galli)
# Method in brief: (§1)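 Preemergence: seeds sown in a loam soil–sand blend and sprayed with test chemicals in a non-phytotoxic solvent mixture containing surfactant. Postemergence: plants grown in peat-based medium and treated at 2 to 18 cm (1- to 4-leaf stage). After 13 to 15 d in a greenhouse, injury was visually rated 0–100 against controls.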
# [2] = test system: crabgrass, large (large crabgrass, Digitaria sanguinalis)
# Method in brief: as §1
# [3] = test system: foxtail, giant (giant foxtail, Setaria faberii)
# Method in brief: as §1
# [4] = test system: galium (catchweed bedstraw, Galium aparine)
# Method in brief: as §1
# [5] = test system: johnsongrass (Sorghum halepense)
# Method in brief: as §1
# [6] = test system: lambsquarters (Chenopodium album)
# Method in brief: as §1
# [7] = test system: nutsedge, yellow (yellow nutsedge, Cyperus esculentus)
# Method in brief: as §1
# [8] = test system: oilseed rape (Brassica napus)
# Method in brief: as §1
# [9] = test system: ragweed (common ragweed, Ambrosia elatior)
# Method in brief: as §1
# soybean (Glycine max) = test system: soybean (Glycine max)
# Method in brief: as §1
# [10] = test system: waterhemp (common waterhemp, Amaranthus rudis)
# Method in brief: as §1
# [11] = test system: wheat (winter wheat, Triticum aestivum)
# Method in brief: as §1
# [12] = Postemergence, 31 g ai/ha, 0 to 100 scale (0 no effect, 100 complete control)
# [13] = Postemergence, 125 g ai/ha, scale 0 to 100, 0 is no effect, 100 is complete control
# [14] = Postemergence, 250 g ai/ha, scale 0 to 100, 0 no effect, 100 complete control, 13 to 15 d
# [15] = Preemergence, 31 g ai/ha, scale 0 to 100, 0 is no effect, 100 is complete control
# [16] = Preemergence, 62 g ai/ha, scale 0 to 100, 0 is no effect, 100 is complete control
# [17] = Preemergence, 125 g ai/ha, scale 0 to 100, 0 is no effect, 100 is complete control
# [18] = Preemergence, 250 g ai/ha, scale 0 to 100, 0 no effect, 100 complete control
# [19] = postemergence, 62 g ai/ha, scale 0 to 100, 0 no effect, 100 complete control
smiles,measurement,setting,value
COC(=O)Oc1c(C)nn(C)c(=O)c1-c1c(C)sc2ccc(C)cc12 [Compound 80],Barnyardgrass plant response rating,[1]; [12],25
same,"Plant response rating, Barnyardgrass",[1]; [13],35
same,"Plant response rating, Barnyardgrass",[1]; [14],35
same,"Plant response rating, Barnyardgrass",[1]; [15],10
same,"Plant response rating, Barnyardgrass",[1]; [16],65
same,"Plant response rating, Barnyardgrass",[1]; [17],75
same,Barnyardgrass plant response rating,[1]; [18],85
same,Barnyardgrass plant response rating,[1]; [19],30
same,"Crabgrass, Large plant response rating",[2]; [12],10
same,"Plant response rating, Crabgrass, Large",[2]; [13],30
same,"Plant response rating, Crabgrass, Large",[2]; [14],35
same,"Plant response rating, Crabgrass, Large",[2]; [15],10
same,"Plant response rating, Crabgrass, Large",[2]; [16],15
same,"Plant response rating, Crabgrass, Large",[2]; [17],40
same,"Crabgrass, Large plant response rating",[2]; [18],75
same,"Crabgrass, Large plant response rating",[2]; [19],25
same,"Foxtail, Giant plant response rating",[3]; [12],25
same,"Plant response rating, Foxtail, Giant",[3]; [13],70
same,"Plant response rating, Foxtail, Giant",[3]; [14],90
same,"Plant response rating, Foxtail, Giant",[3]; [15],70
same,"Plant response rating, Foxtail, Giant",[3]; [16],85
same,"Plant response rating, Foxtail, Giant",[3]; [17],85
same,"Foxtail, Giant plant response rating",[3]; [18],98
same,"Foxtail, Giant plant response rating",[3]; [19],55
same,Galium plant response rating,[4]; [12],90
same,"Plant response rating, Galium",[4]; [13],95
same,"Plant response rating, Galium",[4]; [14],95
same,"Plant response rating, Galium",[4]; [15],90
same,"Plant response rating, Galium",[4]; [16],95
same,"Plant response rating, Galium",[4]; [17],95
same,Galium plant response rating,[4]; [18],95
same,Galium plant response rating,[4]; [19],95
same,Johnsongrass plant response rating,[5]; [12],5
same,"Plant response rating, Johnsongrass",[5]; [13],5
same,"Plant response rating, Johnsongrass",[5]; [14],15
same,"Plant response rating, Johnsongrass",[5]; [15],5
same,"Plant response rating, Johnsongrass",[5]; [16],5
same,"Plant response rating, Johnsongrass",[5]; [17],30
same,Johnsongrass plant response rating,[5]; [18],35
same,Johnsongrass plant response rating,[5]; [19],5
same,Lambsquarters plant response rating,[6]; [12],95
same,"Plant response rating, Lambsquarters",[6]; [13],98
same,"Plant response rating, Lambsquarters",[6]; [14],100
same,"Plant response rating, Lambsquarters",[6]; [15],90
same,"Plant response rating, Lambsquarters",[6]; [16],90
same,"Plant response rating, Lambsquarters",[6]; [17],90
same,Lambsquarters plant response rating,[6]; [18],98
same,Lambsquarters plant response rating,[6]; [19],95
same,"Nutsedge, Yellow plant response rating",[7]; [12],65
same,"Plant response rating, Nutsedge, Yellow",[7]; [13],85
same,"Plant response rating, Nutsedge, Yellow",[7]; [14],95
same,"Plant response rating, Nutsedge, Yellow",[7]; [15],20
same,"Plant response rating, Nutsedge, Yellow",[7]; [16],25
same,"Plant response rating, Nutsedge, Yellow",[7]; [17],80
same,"Nutsedge, Yellow plant response rating",[7]; [18],80
same,"Nutsedge, Yellow plant response rating",[7]; [19],80
same,Oilseed Rape plant response rating,[8]; [12],5
same,"Plant response rating, Oilseed Rape",[8]; [13],60
same,"Plant response rating, Oilseed Rape",[8]; [14],80
same,"Plant response rating, Oilseed Rape",[8]; [15],0
same,"Plant response rating, Oilseed Rape",[8]; [16],30
same,"Plant response rating, Oilseed Rape",[8]; [17],50
same,Oilseed Rape plant response rating,[8]; [18],0
same,Oilseed Rape plant response rating,[8]; [19],50
same,Ragweed plant response rating,[9]; [12],98
same,"Plant response rating, Ragweed",[9]; [13],98
same,"Plant response rating, Ragweed",[9]; [14],98
same,"Plant response rating, Ragweed",[9]; [15],90
same,"Plant response rating, Ragweed",[9]; [16],95
same,"Plant response rating, Ragweed",[9]; [17],95
same,Ragweed plant response rating,[9]; [18],100
same,Ragweed plant response rating,[9]; [19],90
same,Soybean plant response rating,soybean (Glycine max); [12],0
same,"Plant response rating, Soybean",soybean (Glycine max); [13],5
same,"Plant response rating, Soybean",soybean (Glycine max); [14],20
same,"Plant response rating, Soybean",soybean (Glycine max); [15],0
same,"Plant response rating, Soybean",soybean (Glycine max); [16],0
same,"Plant response rating, Soybean",soybean (Glycine max); [17],0
same,Soybean plant response rating,soybean (Glycine max); [18],0
same,Soybean plant response rating,soybean (Glycine max); [19],15
same,Waterhemp plant response rating,[10]; [12],85
same,"Plant response rating, Waterhemp",[10]; [13],85
same,"Plant response rating, Waterhemp",[10]; [14],95
same,"Plant response rating, Waterhemp",[10]; [15],100
same,"Plant response rating, Waterhemp",[10]; [16],100
same,"Plant response rating, Waterhemp",[10]; [17],100
same,Waterhemp plant response rating,[10]; [18],100
same,Waterhemp plant response rating,[10]; [19],80
same,Wheat plant response rating,[11]; [12],0
same,"Plant response rating, Wheat",[11]; [13],10
same,"Plant response rating, Wheat",[11]; [14],15
same,"Plant response rating, Wheat",[11]; [15],0
same,"Plant response rating, Wheat",[11]; [16],0
same,"Plant response rating, Wheat",[11]; [17],0
same,Wheat plant response rating,[11]; [18],0
same,Wheat plant response rating,[11]; [19],5
Cc1sc2ccccc2c1-c1c(O)c(Cl)nn(C)c1=O [Compound 89],Barnyardgrass plant response rating,[1]; [12],5
same,"Plant response rating, Barnyardgrass",[1]; [13],20
same,"Plant response rating, Barnyardgrass",[1]; [14],40
same,"Plant response rating, Barnyardgrass",[1]; [15],5
same,"Plant response rating, Barnyardgrass",[1]; [16],15
same,"Plant response rating, Barnyardgrass",[1]; [17],25
same,Barnyardgrass plant response rating,[1]; [18],65
same,Barnyardgrass plant response rating,[1]; [19],15
same,"Plant response rating, Crabgrass, Large",[2]; [13],5
same,"Plant response rating, Crabgrass, Large",[2]; [14],10
same,"Plant response rating, Crabgrass, Large",[2]; [15],20
same,"Plant response rating, Crabgrass, Large",[2]; [16],0
same,"Plant response rating, Crabgrass, Large",[2]; [17],25
same,"Crabgrass, Large plant response rating",[2]; [18],75
same,"Crabgrass, Large plant response rating",[2]; [19],5
same,"Plant response rating, Foxtail, Giant",[3]; [13],20
same,"Plant response rating, Foxtail, Giant",[3]; [14],30
same,"Plant response rating, Foxtail, Giant",[3]; [15],10
same,"Plant response rating, Foxtail, Giant",[3]; [16],60
same,"Plant response rating, Foxtail, Giant",[3]; [17],65
same,"Foxtail, Giant plant response rating",[3]; [18],75
same,"Foxtail, Giant plant response rating",[3]; [19],10
same,"Plant response rating, Galium",[4]; [13],95
same,"Plant response rating, Galium",[4]; [14],95
same,"Plant response rating, Galium",[4]; [15],95
same,"Plant response rating, Galium",[4]; [16],98
same,"Plant response rating, Galium",[4]; [17],98
same,Galium plant response rating,[4]; [18],98
same,Galium plant response rating,[4]; [19],95
same,"Plant response rating, Johnsongrass",[5]; [13],0
same,"Plant response rating, Johnsongrass",[5]; [14],5
same,"Plant response rating, Johnsongrass",[5]; [15],0
same,"Plant response rating, Johnsongrass",[5]; [16],75
same,"Plant response rating, Johnsongrass",[5]; [17],0
same,Johnsongrass plant response rating,[5]; [18],5
same,Johnsongrass plant response rating,[5]; [19],0
same,"Plant response rating, Lambsquarters",[6]; [13],100
same,"Plant response rating, Lambsquarters",[6]; [14],100
same,"Plant response rating, Lambsquarters",[6]; [15],40
same,"Plant response rating, Lambsquarters",[6]; [16],85
same,"Plant response rating, Lambsquarters",[6]; [17],98
same,Lambsquarters plant response rating,[6]; [18],90
same,Lambsquarters plant response rating,[6]; [19],90
same,"Plant response rating, Nutsedge, Yellow",[7]; [13],70
same,"Plant response rating, Nutsedge, Yellow",[7]; [14],75
same,"Plant response rating, Nutsedge, Yellow",[7]; [15],60
same,"Plant response rating, Nutsedge, Yellow",[7]; [16],75
same,"Plant response rating, Nutsedge, Yellow",[7]; [17],80
same,"Nutsedge, Yellow plant response rating",[7]; [18],90
same,"Nutsedge, Yellow plant response rating",[7]; [19],60
same,"Plant response rating, Oilseed Rape",[8]; [13],0
same,"Plant response rating, Oilseed Rape",[8]; [14],0
same,"Plant response rating, Oilseed Rape",[8]; [15],0
same,"Plant response rating, Oilseed Rape",[8]; [16],0
same,"Plant response rating, Oilseed Rape",[8]; [17],30
same,Oilseed Rape plant response rating,[8]; [18],90
same,Oilseed Rape plant response rating,[8]; [19],0
same,"Plant response rating, Ragweed",[9]; [13],90
same,"Plant response rating, Ragweed",[9]; [14],98
same,"Plant response rating, Ragweed",[9]; [15],30
same,"Plant response rating, Ragweed",[9]; [16],80
same,"Plant response rating, Ragweed",[9]; [17],80
same,Ragweed plant response rating,[9]; [18],90
same,Ragweed plant response rating,[9]; [19],90
same,"Plant response rating, Soybean",soybean (Glycine max); [13],0
same,"Plant response rating, Soybean",soybean (Glycine max); [14],0
same,"Plant response rating, Soybean",soybean (Glycine max); [15],0
same,"Plant response rating, Soybean",soybean (Glycine max); [16],0
same,"Plant response rating, Soybean",soybean (Glycine max); [17],0
same,Soybean plant response rating,soybean (Glycine max); [18],5
same,Soybean plant response rating,soybean (Glycine max); [19],0
same,"Plant response rating, Waterhemp",[10]; [13],50
same,"Plant response rating, Waterhemp",[10]; [14],50
same,"Plant response rating, Waterhemp",[10]; [15],75
same,"Plant response rating, Waterhemp",[10]; [16],50
same,"Plant response rating, Waterhemp",[10]; [17],40
same,Waterhemp plant response rating,[10]; [18],75
same,Waterhemp plant response rating,[10]; [19],40
same,"Plant response rating, Wheat",[11]; [13],0
same,"Plant response rating, Wheat",[11]; [14],0
same,"Plant response rating, Wheat",[11]; [15],0
same,"Plant response rating, Wheat",[11]; [16],0
same,"Plant response rating, Wheat",[11]; [17],0
same,Wheat plant response rating,[11]; [18],0
same,Wheat plant response rating,[11]; [19],0

# Source: patent US10597388B2, “Pyridazinone herbicides” (FMC CORPORATION, priority 2014, dated 2020)
